System: 922993-354-T-J3-PDC complex spheroid viability
Test: Anticancer human tumor 922993-354-T-J3-PDC patient-derived endometrial carcinoma cell line growth inhibition [POLQ]
Details: for IC50: curve of first compound; for viability, T/C: stronger effect = lower value
Summary of the method: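 Growth inhibition in 3D: complex spheroids (tumor PDC, HUVEC, MSC) treated with POLQ inhibitor combinations; where Cmax unknown, highest tested concentration 10 microM, except SN-38 at 1 microM.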

[1] = second compound 0.0316 µM, first compound 0.00316 µM
[2] = second compound 0.0316 µM, first compound 0.01 µM
[3] = second compound 0.0316 µM, first compound 0.0316 µM
[4] = second compound 0.0316 µM, first compound 0.1 µM
[5] = second compound 0.1 µM, first compound 0.00316 µM
[6] = second compound 0.1 µM, first compound 0.01 µM
[7] = second compound 0.1 µM, first compound 0.0316 µM
[8] = second compound 0.1 µM, first compound 0.1 µM
[9] = second compound 0.316 µM, first compound 0.00316 µM
[10] = second compound 0.316 µM, first compound 0.01 µM
[11] = second compound 0.316 µM, first compound 0.0316 µM
[12] = second compound 0.316 µM, first compound 0.1 µM
[13] = second compound 1 µM, first compound 0.00316 µM
[14] = second compound 1 µM, first compound 0.01 µM
[15] = second compound 1 µM, first compound 0.0316 µM
[16] = second compound 1 µM, first compound 0.1 µM
[17] = second compound 3.16 µM, first compound 0.00316 µM
[18] = second compound 3.16 µM, first compound 0.01 µM
[19] = second compound 3.16 µM, first compound 0.0316 µM
[20] = second compound 3.16 µM, first compound 0.1 µM
[21] = second compound 10 µM, first compound 0.00316 µM
[22] = second compound 10 µM, first compound 0.01 µM
[23] = second compound 10 µM, first compound 0.0316 µM
[24] = second compound 10 µM, first compound 0.1 µM
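Further: spheroids exposed to the agents for one week.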
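Wherever viability, T/C is given: 100% = DMSO vehicle control wells.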

In the case of CC[C@@]1(O)C(=O)OCc2c1cc1n(c2=O)Cc2cc3c(CN(C)C)c(O)ccc3nc2-1 + Cc1cccc(N(C)C(=O)C2C(O)CCN2c2nc(C)cc(C(F)(F)F)c2C#N)c1, the IC50 (second compound 0.0316 µM) is reported as 90.6 nM, the IC50 (second compound 0.1 µM) is reported as > 100 nM and the IC50 (second compound 0.316 µM) is reported as > 100 nM. The IC50 (second compound 1 µM) was > 100 nM, the IC50 (second compound 3.16 µM) was > 100 nM and the IC50 (second compound 10 µM) was 48.5 nM. The viability, T/C (second compound 0.0316 µM, first compound 0.000316 µM) was 108%, the viability, T/C (second compound 0.0316 µM, first compound 0.001 µM) was 100% and the viability, T/C [1] was 104%. For the same compound, the viability, T/C [2] was 98.6%, the viability, T/C [3] was 88.2% and the viability, T/C [4] was 46.3%. For the same compound, the viability, T/C (second compound 0.1 µM, first compound 0.000316 µM) was 109%, the viability, T/C (second compound 0.1 µM, first compound 0.001 µM) was 101% and the viability, T/C [5] was 103%. For the same compound, the viability, T/C [6] was 102%, the viability, T/C [7] was 90% and the viability, T/C [8] was 65.5%. The viability, T/C (second compound 0.316 µM, first compound 0.000316 µM) was 110%, the viability, T/C (second compound 0.316 µM, first compound 0.001 µM) was 104% and the viability, T/C [9] was 94.9%. The viability, T/C [10] was 102%, the viability, T/C [11] was 87% and the viability, T/C [12] was 59.1%. The viability, T/C (second compound 1 µM, first compound 0.000316 µM) was 104%, the viability, T/C (second compound 1 µM, first compound 0.001 µM) was 99.5% and the viability, T/C [13] was 104%. It also gave a viability, T/C [14] of 99.7%, a viability, T/C [15] of 86% and a viability, T/C [16] of 57.3%. The viability, T/C (second compound 3.16 µM, first compound 0.000316 µM) was 108%, the viability, T/C (second compound 3.16 µM, first compound 0.001 µM) was 102% and the viability, T/C [17] was 94.1%. It also gave a viability, T/C [18] of 93%, a viability, T/C [19] of 77.1% and a viability, T/C [20] of 49.9%. It also gave a viability, T/C (second compound 10 µM, first compound 0.000316 µM) of 101%, a viability, T/C (second compound 10 µM, first compound 0.001 µM) of 99.2% and a viability, T/C [21] of 99.2%. For the same compound, the viability, T/C [22] was 79.1%, the viability, T/C [23] was 68.3% and the viability, T/C [24] was 23.7%.

CCc1c2c(nc3ccc(O)cc13)-c1cc3c(c(=O)n1C2)COC(=O)[C@]3(O)CC + Cc1cccc(N(C)C(=O)C2C(O)CCN2c2nc(C)cc(C(F)(F)F)c2C#N)c1 showed an IC50 (second compound 0.0316 µM) of 11.6 nM, an IC50 (second compound 0.1 µM) of 14.3 nM and an IC50 (second compound 0.316 µM) of 14.2 nM. For the same compound, the IC50 (second compound 1 µM) was 17 nM, the IC50 (second compound 3.16 µM) was 13 nM and the IC50 (second compound 10 µM) was 6.84 nM. It also gave a viability, T/C [1] of 89.5%, a viability, T/C [2] of 55% and a viability, T/C [3] of 15.1%. The viability, T/C [4] was 12.8%, the viability, T/C (second compound 0.0316 µM, first compound 0.316 µM) was 12.9% and the viability, T/C (second compound 0.0316 µM, first compound 1 µM) was 15%. The viability, T/C [5] was 91.8%, the viability, T/C [6] was 63.5% and the viability, T/C [7] was 20.2%. It also gave a viability, T/C [8] of 11.3%, a viability, T/C (second compound 0.1 µM, first compound 0.316 µM) of 12.8% and a viability, T/C (second compound 0.1 µM, first compound 1 µM) of 16.3%. It also gave a viability, T/C [9] of 100%, a viability, T/C [10] of 63.4% and a viability, T/C [11] of 19.7%. It also gave a viability, T/C [12] of 11.9%, a viability, T/C (second compound 0.316 µM, first compound 0.316 µM) of 12.4% and a viability, T/C (second compound 0.316 µM, first compound 1 µM) of 17.1%. For the same compound, the viability, T/C [13] was 100%, the viability, T/C [14] was 72.8% and the viability, T/C [15] was 23.5%. It also gave a viability, T/C [16] of 10.3%, a viability, T/C (second compound 1 µM, first compound 0.316 µM) of 12.4% and a viability, T/C (second compound 1 µM, first compound 1 µM) of 15.3%. It also gave a viability, T/C [17] of 90.9%, a viability, T/C [18] of 58.3% and a viability, T/C [19] of 21.7%. For the same compound, the viability, T/C [20] was 9.8%, the viability, T/C (second compound 3.16 µM, first compound 0.316 µM) was 12.3% and the viability, T/C (second compound 3.16 µM, first compound 1 µM) was 17.4%. For the same compound, the viability, T/C [21] was 82.3%, the viability, T/C [22] was 34.1% and the viability, T/C [23] was 10.5%. It also gave a viability, T/C [24] of 10%, a viability, T/C (second compound 10 µM, first compound 0.316 µM) of 13.9% and a viability, T/C (second compound 10 µM, first compound 1 µM) of 17.7%.

Reference: PubChem BioAssay AID1963830 (Molecular Pharmacology Branch, DTP, NCI, 2024)
